Source: patent publication US11634443B2, “Treprostinil prodrugs” (United Therapeutics Corporation, priority 2019, dated 2023)
Where two headings read alike, the source gives them in different places.

What was measured:
[1] = target: T1, prostaglandin I2 (PGI2) receptor (IP) (Homo sapiens, UniProt P43119); assay: IP receptor cAMP assay (agonist mode); format: cell-based; conditions: cAMP, cells overexpressing human IP
T1 construct: expressed in transfected cells; host or cells: CHO-K1
Description: (§3) Assay Buffer: • EP1 Calcium and DP1 cAMP Assays: HBSS plus 20 mM HEPES • EP2 and IP1 cAMP Assays: 1 mM IBMX in HBSS plus 20 mM HEPES
(§4) Cells were thawed from frozen cells and resuspended in assay buffer at desired concentrations. cAMP or Calcium assays were performed according to the manufacturer's protocol using Multiscreen™ TR-FRET cAMP 1.0 No Wash Assay Kit or Multiscreen™ Calcium 1.0 No Wash Kit.
(§5) Gas Cyclic AMP (cAMP) Assay: In agonist mode testing, cells were seeded in a 384-well plate at an appropriate density and then were treated with compounds and incubated at 37° C. for 20 minutes. The reaction was terminated by sequentially adding sequentially adding trFluor™ Eu-labeled cAMP and trFluor™ 650-labeled anti-cAMP antibody in lysis buffer. […] All testing wells contained 0.1% DMSO in the final concentrations.
(§6) Data in graphs are represented in Mean±SD. Dose-dependent responses were fitted with sigmoidal dose-response curves allowing variable slopes using GraphPad Prism version 6 (Graphpad Prism).
(§7) These studies used cell lines overexpressing either human IP, EP2 or DP1, or EP1 receptors, and following incubation with varying concentrations of compounds, cAMP levels were measured using Fluorescence Resonance Energy Transfer (FRET).

[2] = Hydrolysis of treprostinil prodrugs to treprostinil at pH 6, 7 and 8 and 40 C; format: physicochemical
Text: Tables 26, 27 and 28 present data for hydrolysis of selected treprostinil prodrugs at pH 6, 7 and 8, respectively, and 40 C.

[3] = Plasma stability and formation of treprostinil, rat plasma; format: in vitro ADME; conditions: for Percent Remaining / Half-Life: 1 μM, 37° C.; for Formation of Treprostinil, Concentration: prodrug dosed at 1 μM
Description: (§1) Studies were carried out in mixed-gender human plasma male Sprague-Dawley rat plasma, and male Beagle dog plasma. All plasma was obtained from Bioreclamation and collected on K2EDTA. Plasma was adjusted to pH 7.4 prior to initiating the experiments. DMSO stocks were first prepared for the test articles. […] The vials were kept in a benchtop Thermomixer® for the duration of the experiment. […] Samples were stored at 4° C. until the end of the experiment. After the final time point was sampled, the plate was mixed and then centrifuged at 3000 rpm for 10 minutes.

[4] = Stability and formation of treprostinil in simulated intestinal fluid; format: in vitro ADME; conditions: for Percent Remaining / Half-Life: SIF pH 6.8, 1 μM, 37° C.; for Formation of Treprostinil, Concentration: SIF, prodrug dosed at 1 μM
Description: Studies were carried out in simulated intestinal fluid (SIF). SIF was prepared by dissolving 6.8 g of KH2PO4 in 250 mL of water, mixing, and then adding 77 mL of 0.2 N NaOH and 750 mL of water. Pancreatin (10 g) was added, mixed, and the pH was adjusted to pH 6.8 with 10 N NaOH. DMSO stocks were first prepared for the test articles. Aliquots of the DMSO solutions were dosed into 0.4 mL of matrix, which had been pre-warmed to 37° C., at a final test article concentration of 1 μM. The vials were kept in a benchtop Thermomixer® for the duration of the experiment. A separate tube was dosed for each time point in each matrix. At the appropriate times (0, 15, 30, 60, and 120 minutes), 0.8 mL of acetonitrile (ACN) containing 1% formic acid and internal standard was added directly to a single tube. Samples were mixed and then immediately stored at 4° C. until the end of the experiment. After the final time point was sampled, the plate was mixed and then centrifuged at 3000 rpm for 10 minutes. Aliquots of the supernatant were removed, diluted 1:1 into distilled water containing internal standard, and analyzed by LC-MS/MS against calibration standards prepared in a matched matrix. All samples were analyzed for the dosed prodrugs as well as the drug, treprostinil. The test article concentration was compared to the concentration at time 0 to determine the percent of test article remaining at each time point. Half-lives were calculated using GraphPad software, fitting to a single-phase exponential decay equation.

[5] = target: T2, prostaglandin D2 (PGD2) receptor 1 (DP1) (Homo sapiens, UniProt Q13258); assay: DP1 receptor cAMP assay (agonist mode); format: cell-based; conditions: for Activity, DP1 Relative to Tre: relative to treprostinil EC50 values, * partial agonists or ambiguous dose-response curves
T2 construct: expressed in transfected cells; host or cells: HEK293T
T2 sequence (Q13258 1-359): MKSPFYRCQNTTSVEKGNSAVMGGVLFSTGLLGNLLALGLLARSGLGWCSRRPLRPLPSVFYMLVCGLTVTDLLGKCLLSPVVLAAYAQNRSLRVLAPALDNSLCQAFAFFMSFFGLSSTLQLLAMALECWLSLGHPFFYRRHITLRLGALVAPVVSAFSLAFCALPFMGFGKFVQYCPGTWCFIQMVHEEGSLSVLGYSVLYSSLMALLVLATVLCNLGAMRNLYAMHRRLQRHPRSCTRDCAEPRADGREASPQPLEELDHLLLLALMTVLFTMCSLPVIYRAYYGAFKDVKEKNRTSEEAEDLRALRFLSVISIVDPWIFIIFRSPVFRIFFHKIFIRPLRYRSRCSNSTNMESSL
Description: as §3, §4, §5, §6, §7

[6] = Stability and formation of treprostinil in human cryopreserved hepatocytes
Description: (§2) Mixed-gender human cryopreserved hepatocytes, male Sprague-Dawley rat cryopreserved hepatocytes, and male Beagle dog cryopreserved hepatocytes were purchased from XenoTech. The hepatocytes were thawed and prepared according to the vendor's instructions, pooled into Krebs Henseleit buffer (KHB, pH 7.4), and kept on ice prior to the experiments. […] The final DMSO content in the incubation mixture was ≤0.1%. […] Aliquots of the test article were withdrawn (n=1) at 0, 15, 30, 60, and 120 minutes. […] Aliquots of 7-HC were withdrawn (n=1) at 0 and 15 minutes. The reaction was immediately terminated by adding two volumes of ice-cold acetonitrile (ACN) to the test article samples and three volumes of ACN containing internal standard to the positive control samples.

[7] = target: T3, prostaglandin E2 (PGE2) receptor 2 (EP2) (Homo sapiens, UniProt P43116); assay: EP2 receptor cAMP assay (agonist mode); format: cell-based; conditions: cAMP, cells overexpressing human EP2
T3 construct: expressed in transfected cells; host or cells: HEK293T
Description: as §3, §4, §5, §6, §7

[8] = Plasma stability and formation of treprostinil, human plasma; format: in vitro ADME; conditions: for Percent Remaining / Half-Life: 1 μM, 37° C.; for Formation of Treprostinil, Concentration: prodrug dosed at 1 μM
Description: as §1

[9] = microsomes
Description: (§8) Mixed-gender human liver microsomes, male Sprague-Dawley rat liver microsomes, and male Beagle dog liver microsomes were purchased from XenoTech. The reaction mixture, minus NADPH, was prepared as described below. […] An aliquot of the reaction mixture (without cofactor) was equilibrated in a shaking water bath at 37° C. for 5 minutes. The reaction was initiated by the addition of cofactor, and the mixture was incubated in a shaking water bath at 37° C. Aliquots (200 μL) were withdrawn at 0, 10, 20, 30, and 60 minutes. Test article samples were immediately combined with 400 μL of ice-cold acetonitrile (ACN) to terminate the reaction. […] The samples were then mixed and centrifuged to precipitate proteins. Aliquots of the supernatant were removed, diluted 1:1 into distilled water containing internal standard, and analyzed by LC-MS/MS against calibration standards prepared in a matched matrix. All samples were analyzed for the dosed prodrugs as well as the drug, treprostinil. The test article concentration was compared to the concentration at time 0 to determine the percent of test article remaining at each time point. Half-lives and clearance were calculated using GraphPad software, fitting to a single-phase exponential decay equation.
Liver Microsomes 0.5 mg/mL
Potassium Phosphate, pH 7.4 100 mM

[10] = microsomes; remark: listed apart in the source
Description: as §8
Liver Microsomes 0.5 mg/mL
Potassium Phosphate, pH 7.4 100 mM

[11] = Plasma stability and formation of treprostinil, dog plasma; format: in vitro ADME; conditions: for Percent Remaining / Half-Life: 1 μM, 37° C.; for Formation of Treprostinil, Concentration: prodrug dosed at 1 μM
Description: as §1

[12] = Stability and formation of treprostinil in rat cryopreserved hepatocytes
Description: as §2

[13] = Stability and formation of treprostinil in dog cryopreserved hepatocytes
Description: as §2

T1 sequence (P43119 whole entry): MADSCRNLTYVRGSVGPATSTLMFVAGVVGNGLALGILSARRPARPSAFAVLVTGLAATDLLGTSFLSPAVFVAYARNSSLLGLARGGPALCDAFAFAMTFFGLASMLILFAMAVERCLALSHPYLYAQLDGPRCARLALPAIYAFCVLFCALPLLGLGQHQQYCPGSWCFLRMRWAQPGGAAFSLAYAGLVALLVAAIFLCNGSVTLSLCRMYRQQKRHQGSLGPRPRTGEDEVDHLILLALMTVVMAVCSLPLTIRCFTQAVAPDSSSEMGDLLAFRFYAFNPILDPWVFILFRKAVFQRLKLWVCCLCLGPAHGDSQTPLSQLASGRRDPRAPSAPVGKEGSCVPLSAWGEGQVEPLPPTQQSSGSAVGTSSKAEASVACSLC
T3 sequence (P43116 whole entry): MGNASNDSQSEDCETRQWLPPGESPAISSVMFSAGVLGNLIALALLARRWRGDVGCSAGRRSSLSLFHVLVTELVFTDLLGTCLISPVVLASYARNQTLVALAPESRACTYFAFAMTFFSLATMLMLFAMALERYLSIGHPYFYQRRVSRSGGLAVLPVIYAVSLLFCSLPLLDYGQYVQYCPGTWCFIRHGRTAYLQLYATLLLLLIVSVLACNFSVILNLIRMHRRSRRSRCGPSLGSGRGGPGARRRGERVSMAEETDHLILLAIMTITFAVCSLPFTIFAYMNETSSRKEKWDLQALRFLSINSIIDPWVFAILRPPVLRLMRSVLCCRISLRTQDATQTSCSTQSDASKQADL

Which results are given for treprostinil dipropionate [Prodrug LXX]?
Activity at the IP receptor compared to treprostinil [1]: inactive; Hydrolysis of prodrug to treprostinil, % Area, t = 1 week ([2]; pH 6, 40 C): 0.00 % Area; Hydrolysis of prodrug to treprostinil, % Area, t = 2 weeks ([2]; pH 6, 40 C): 0.00 % Area; Hydrolysis of prodrug to treprostinil, % Area, t = 3 weeks ([2]; pH 6, 40 C): 0.00 % Area; Hydrolysis of prodrug to treprostinil, % Area, t = 1 week ([2]; pH 7, 40 C): 0.00 % Area; Hydrolysis of prodrug to treprostinil, % Area, t = 2 weeks ([2]; pH 7, 40 C): 0.00 % Area; Hydrolysis of prodrug to treprostinil, % Area, t = 3 weeks ([2]; pH 7, 40 C): 0.00 % Area; Hydrolysis of prodrug to treprostinil, % Area, t = 1 week ([2]; pH 8, 40 C): 0.00 % Area; Hydrolysis of prodrug to treprostinil, % Area, t = 2 weeks ([2]; pH 8, 40 C): 0.00 % Area; Hydrolysis of prodrug to treprostinil, % Area, t = 3 weeks ([2]; pH 8, 40 C): 0.00 % Area; Percent Remaining ([3]; 0 min): 100%; Formation of Treprostinil, Concentration ([3]; 0 min): 0 µM; Half-Life [3]: 102 min; Formation of Treprostinil, Concentration ([3]; 60 mm): 0.0331 µM; Percent Remaining ([3]; 15 min): 98.3%; Formation of Treprostinil, Concentration ([3]; 15 min): 0.00392 µM; Percent Remaining ([3]; 30 min): 80.3%; Formation of Treprostinil, Concentration ([3]; 30 min): 0.0101 µM; Percent Remaining ([3]; 60 min): 69.3%; Percent Remaining ([3]; 120 min): 45.0%; Formation of Treprostinil, Concentration ([3]; 120 min): 0.0768 µM; Percent Remaining ([4]; 0 min): 100%; Half-Life [4]: >120 min; Percent Remaining ([4]; 15 min): 97.2%; Percent Remaining ([4]; 30 min): 104%; Percent Remaining ([4]; 60 min): 93.6%; Percent Remaining ([4]; 120 min): 86.2%; Formation of Treprostinil, Concentration ([4]; 0 min): 0 µM; Formation of Treprostinil, Concentration ([4]; 15 min): 0 µM; Formation of Treprostinil, Concentration ([4]; 30 min): 0 µM; Formation of Treprostinil, Concentration ([4]; 60 min): 0.00415 µM; Formation of Treprostinil, Concentration ([4]; 120 min): 0.0720 µM; EC50 Fold Different from Treprostinil, DP1 Receptor ([5]; Table 20, agonist mode, NC = too inactive to realistically calculate, * partial agonists or odd dose-response curves): 410x*; Activity, DP1 Relative to Tre ([5]; Table 24, image character = too high to realistically calculate): 410x; Activity, DP1 Relative to Tre ([5]; Table 25): 410x; Activity at the DP1 receptor compared to treprostinil ([5]; cAMP, cells overexpressing human DP1): several hundred-fold less active; Treprostinil Concentration, 0 min [6]: 0.00542 µM; Treprostinil Concentration, 15 min [6]: 0.638 µM; Treprostinil Concentration, 30 min [6]: 0.556 µM; Treprostinil Concentration, 60 min [6]: 0.482 µM; Treprostinil Concentration, 120 min [6]: 0.413 µM; Activity at the EP2 receptor compared to treprostinil [7]: inactive; Percent Remaining ([8]; 0 min): 100%; Formation of Treprostinil, Concentration ([8]; 0 min): 0 µM; Half-Life [8]: >120 min; Percent Remaining ([8]; 15 min): 92.4%; Formation of Treprostinil, Concentration ([8]; 15 min): 0 µM; Percent Remaining ([8]; 30 min): 102%; Formation of Treprostinil, Concentration ([8]; 30 min): 0 µM; Percent Remaining ([8]; 60 min): 93.3%; Percent Remaining ([8]; 120 min): 103%; Formation of Treprostinil, Concentration ([8]; 120 min): 0 µM; Formation of Treprostinil, Concentration [8]: 0 µM; Half-Life [9]: <10 min; Half-Life [10]: <10 min; Percent Remaining ([11]; 0 min): 100%; Formation of Treprostinil, Concentration ([11]; 0 min): 0 µM; Half-Life [11]: >120 min; Percent Remaining ([11]; 15 min): 103%; Formation of Treprostinil, Concentration ([11]; 15 min): 0 µM; Percent Remaining ([11]; 30 min): 116%; Formation of Treprostinil, Concentration ([11]; 30 min): 0 µM; Percent Remaining ([11]; 60 min): 97.4%; Percent Remaining ([11]; 120 min): 91.4%; Formation of Treprostinil, Concentration ([11]; 120 min): 0 µM; Formation of Treprostinil, Concentration [11]: 0 µM; Treprostinil Concentration, 0 min [12]: 0 µM; Treprostinil Concentration, 15 min [12]: 0.606 µM; Treprostinil Concentration, 30 min [12]: 0.579 µM; Treprostinil Concentration, 60 min [12]: 0.484 µM; Treprostinil Concentration, 120 min [12]: 0.405 µM; Treprostinil Concentration, 0 min [13]: 0.0959 µM; Treprostinil Concentration, 15 min [13]: 0.736 µM; Treprostinil Concentration, 30 min [13]: 0.597 µM; Treprostinil Concentration, 60 min [13]: 0.511 µM; Treprostinil Concentration, 120 min [13]: 0.445 µM; CLint ([13]; hepatocytes): >0.0308 mL/min/mg protein; Half-Life ([13]; hepatocytes): <15 min

With treprostinil dicarbonate [Prodrug LXXI] as the substance, how does the “Activity at the IP receptor compared to treprostinil” value [1] read?
The value was “inactive”.

And the “Hydrolysis of prodrug to treprostinil, % Area, t = 1 week” value (“Hydrolysis … % Area, t = 1 week” below) ([2]; pH 6, 40 C)?
Its value is 0.00 % Area.

What about the “Hydrolysis of prodrug to treprostinil, % Area, t = 2 weeks” value (shortened to “Hydrolysis … % Area, t = 2 weeks”) ([2]; pH 6, 40 C) of the same substance?
The value was 0.00 % Area.

What about the “Hydrolysis of prodrug to treprostinil, % Area, t = 3 weeks” value (from here on “Hydrolysis … % Area, t = 3 weeks”) ([2]; pH 6, 40 C) of the same substance?
Its value is 0.00 % Area.

What about the “Hydrolysis … % Area, t = 1 week” value ([2]; pH 7, 40 C) of the same substance?
Its value is 0.00 % Area.

And the “Hydrolysis … % Area, t = 2 weeks” value ([2]; pH 7, 40 C)?
The value was 0.00 % Area.

What about the “Hydrolysis … % Area, t = 3 weeks” value ([2]; pH 7, 40 C) of the same substance?
The value was 0.00 % Area.

And the “Hydrolysis … % Area, t = 1 week” value ([2]; pH 8, 40 C)?
The value was 0.00 % Area.

And the “Hydrolysis … % Area, t = 2 weeks” value ([2]; pH 8, 40 C)?
Its value is 0.00 % Area.

What about the “Hydrolysis … % Area, t = 3 weeks” value ([2]; pH 8, 40 C) of the same substance?
The value was 0.38 % Area.

And the Half-Life [3]?
The Half-Life was under 15 min.

And the Half-Life [4]?
Its Half-Life is over 120 min.

What about the “Formation of Treprostinil, Concentration” value ([4]; 0 min) of the same substance?
The value was 0 µM.

What about the “Formation of Treprostinil, Concentration” value ([4]; 15 min) of the same substance?
Its value is 0 µM.

What about the “Formation of Treprostinil, Concentration” value ([4]; 30 min) of the same substance?
The value was 0 µM.

What about the “Formation of Treprostinil, Concentration” value ([4]; 60 min) of the same substance?
The value was 0 µM.

What about the “Formation of Treprostinil, Concentration” value ([4]; 120 min) of the same substance?
Its value is 0.0121 µM.

What about the “Treprostinil Concentration, 0 min” value [6] of the same substance?
The value was 0 µM.

And the “Treprostinil Concentration, 15 min” value [6]?
Its value is 0.118 µM.

And the “Treprostinil Concentration, 30 min” value [6]?
The value was 0.211 µM.

What about the “Treprostinil Concentration, 60 min” value [6] of the same substance?
The value was 0.273 µM.

And the “Treprostinil Concentration, 120 min” value [6]?
The value was 0.259 µM.

And the “Activity at the EP2 receptor compared to treprostinil” value [7]?
Its value is “inactive”.

What about the Half-Life [8] of the same substance?
Its Half-Life is over 120 min.

What about the Half-Life [11] of the same substance?
The Half-Life was over 120 min.

What about the “Treprostinil Concentration, 0 min” value [12] of the same substance?
Its value is 0 µM.

What about the “Treprostinil Concentration, 15 min” value [12] of the same substance?
The value was 0.422 µM.

And the “Treprostinil Concentration, 30 min” value [12]?
The value was 0.403 µM.

And the “Treprostinil Concentration, 60 min” value [12]?
Its value is 0.347 µM.

What about the “Treprostinil Concentration, 120 min” value [12] of the same substance?
The value was 0.292 µM.

And the “Treprostinil Concentration, 0 min” value [13]?
Its value is 0.00293 µM.

And the “Treprostinil Concentration, 15 min” value [13]?
The value was 0.501 µM.

And the “Treprostinil Concentration, 30 min” value [13]?
The value was 0.408 µM.

What about the “Treprostinil Concentration, 60 min” value [13] of the same substance?
The value was 0.348 µM.

What about the “Treprostinil Concentration, 120 min” value [13] of the same substance?
Its value is 0.303 µM.
